Patent publication US10766903B2 (ALMAC DISCOVERY LIMITED, priority 2016, dated 2020)
Structures can show the parent of a compound that is named as a salt.

biological target: USP7 (Homo sapiens (Human), UniProt Q93009); test: USP7 fluorescence polarisation (FP) biochemical assay, ubiquitin-Lys-TAMRA substrate; conditions: not given
Method: Measurement of USP7 Inhibitory Activity
USP7 activity was monitored in a fluorescence polarisation (FP) homogeneous assay using the isopeptide ubiquitin-Lys-TAMRA substrate (U-558, Boston Biochem). Full-length USP7 was purchased from Boston Biochem (His6-USP7FL, E-519). Unless otherwise stated, all other reagents were purchased from Sigma-Aldrich. Enzymatic reactions were conducted in black flat-bottom polystyrene 384-well plates (Nunc) and 15 μL total volume. USP7 (2.5 nM, 5 μL) was incubated in assay buffer (50 mM HEPES (pH 7.2), 150 mM NaCl, 0.5 mM EDTA, 5 mM DTT, 0.05% BSA (w/v), 0.05% CHAPS) in the presence or absence of inhibitor (5 μl). Inhibitors were stored as 10 mM DMSO stocks in an inert environment (low humidity, dark, low oxygen, room temperature) using a Storage Pod System and serial dilutions were prepared in buffer just prior to the assay (from 200 to 0.1 μM, 8 dp curve). […] FP was measured every 15 min over a period of 1.5 h (within the linear range of the assay) using a Synergy 4 plate reader (BioTek) exciting at 530 nm and measuring the amount of parallel and perpendicular light at 575 nm. The FP signal was subsequently normalised to the control without compound present.

USP7, sequence (Q93009 whole entry): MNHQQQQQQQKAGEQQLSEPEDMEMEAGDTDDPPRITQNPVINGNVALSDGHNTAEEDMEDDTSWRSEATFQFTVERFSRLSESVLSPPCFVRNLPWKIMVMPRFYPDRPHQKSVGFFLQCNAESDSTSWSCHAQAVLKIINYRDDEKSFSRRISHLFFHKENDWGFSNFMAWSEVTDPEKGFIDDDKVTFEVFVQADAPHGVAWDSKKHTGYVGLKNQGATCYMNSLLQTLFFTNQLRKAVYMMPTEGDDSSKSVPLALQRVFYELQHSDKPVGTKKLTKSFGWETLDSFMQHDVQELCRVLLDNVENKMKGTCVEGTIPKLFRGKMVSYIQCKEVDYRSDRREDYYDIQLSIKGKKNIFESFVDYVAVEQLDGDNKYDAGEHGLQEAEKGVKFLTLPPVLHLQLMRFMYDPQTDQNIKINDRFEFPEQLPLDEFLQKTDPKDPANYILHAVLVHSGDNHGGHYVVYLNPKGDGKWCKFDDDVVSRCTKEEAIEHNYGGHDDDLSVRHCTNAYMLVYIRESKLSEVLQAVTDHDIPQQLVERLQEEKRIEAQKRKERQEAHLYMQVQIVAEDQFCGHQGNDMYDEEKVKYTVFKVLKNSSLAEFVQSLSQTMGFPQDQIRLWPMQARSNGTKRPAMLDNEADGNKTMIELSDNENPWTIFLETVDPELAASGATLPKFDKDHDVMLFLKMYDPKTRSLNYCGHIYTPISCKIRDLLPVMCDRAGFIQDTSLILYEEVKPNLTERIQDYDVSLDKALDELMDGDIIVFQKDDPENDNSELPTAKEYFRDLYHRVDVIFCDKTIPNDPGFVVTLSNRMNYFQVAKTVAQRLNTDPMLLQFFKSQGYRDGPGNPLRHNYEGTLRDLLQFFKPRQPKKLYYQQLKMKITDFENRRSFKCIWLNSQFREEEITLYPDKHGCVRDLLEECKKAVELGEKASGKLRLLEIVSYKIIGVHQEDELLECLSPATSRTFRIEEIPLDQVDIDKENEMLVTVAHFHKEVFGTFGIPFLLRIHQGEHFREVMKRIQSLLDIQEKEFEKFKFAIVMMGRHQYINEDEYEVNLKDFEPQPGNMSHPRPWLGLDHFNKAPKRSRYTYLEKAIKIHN

Row | SMILES | IC50
1 | C[C@H](CC(=O)N1CCC(O)(Cn2cnc(Nc3ccc4c(c3)C3CCC4N3)cc2=O)CC1)c1ccccc1 (stereo partly drawn) [Example 42, 3-((4-Hydroxy-1-((R)-3-phenylbutanoyl)piperidin-4-yl)methyl)-6-((1,2,3,4-tetrahydro-1,4-epiminonaphthalen-6-yl)amino)pyrimidin-4(3H)-one hydrochloride] | 0.25 to 0.999 µM

same assay, conditions: Table 4, biochemical assay; average of at least duplicate experiments; read-out: USP7 IC50

Row | IC50 | SMILES
2 | 1 to 200 µM | C[C@H](CC(=O)N1CCC(O)(Cn2cnc3c(Nc4ccccc4)n(C)nc3c2=O)CC1)c1ccccc1 [Example 43, (R)-6-((4-Hydroxy-1-(3-phenylbutanoyl)piperidin-4-yl)methyl)-2-methyl-3-(phenylamino)-2H-pyrazolo[4,3-d]pyrimidin-7(6H)-one]
3 | 1 to 200 µM | Cc1c(Cl)ncn(CC2(O)CCN(C(=O)C[C@@H](C)c3ccccc3)CC2)c1=O [Example 44, (R)-6-Chloro-3-((4-hydroxy-1-(3-phenylbutanoyl)piperidin-4-yl)methyl)-5-methylpyrimidin-4(3H)-one]
4 | 1 to 200 µM | C[C@H](CC(=O)N1CCC(O)(Cn2cnc(NCCN3CCCC3)c(Br)c2=O)CC1)c1ccccc1 [Example 45, (R)-5-Bromo-3-((4-hydroxy-1-(3-phenylbutanoyl)piperidin-4-yl)methyl)-6-((2-(pyrrolidin-1-yl)ethyl)amino)pyrimidin-4(3H)-one]
5 | < 0.25 µM | C[C@H](CC(=O)N1CCC(O)(Cn2cnc(N3CCC[C@H](N(C)C)C3)cc2=O)CC1)c1ccccc1 [Example 50, 6-((S)-3-(Dimethylamino)piperidin-1-yl)-3-((4-hydroxy-1-((R)-3-phenylbutanoyl)piperidin-4-yl)methyl)pyrimidin-4(3H)-one]
6 | 1 to 200 µM | C[C@H](CC(=O)N1CCC(O)(Cn2cnc(/C=C/CN3CCCC3)cc2=O)CC1)c1ccccc1 [Example 51, (R,E)-3-((4-Hydroxy-1-(3-phenylbutanoyl)piperidin-4-yl)methyl)-6-(3-(pyrrolidin-1-yl)prop-1-en-1-yl)pyrimidin-4(3H)-one]
7 | < 0.25 µM | C[C@H](CC(=O)N1CCC(O)(Cn2cnc(NCCN3CCCCC3)cc2=O)CC1)c1ccccc1 [Example 52, (R)-3-((4-Hydroxy-1-(3-phenylbutanoyl)piperidin-4-yl)methyl)-6-((2-(piperidin-1-yl)ethyl)amino)pyrimidin-4(3H)-one]
8 | 1 to 200 µM | C[C@H](CC(=O)N1CCC(O)(Cn2cnc(/C=C/CN3CC[C@@H](N)C3)cc2=O)CC1)c1ccccc1 [Example 55, 6-((E)-3-((R)-3-Aminopyrrolidin-1-yl)prop-1-en-1-yl)-3-((4-hydroxy-1-((R)-3-phenylbutanoyl)piperidin-4-yl)methyl)pyrimidin-4(3H)-one, Formic Acid]
9 | 1 to 200 µM | C[C@H](CC(=O)N1CCC(O)(Cn2cnc(/C=C/CN3CC[C@H](N)C3)cc2=O)CC1)c1ccccc1 [Example 56, 6-((E)-3-((S)-3-Aminopyrrolidin-1-yl)prop-1-en-1-yl)-3-((4-hydroxy-1-((R)-3-phenylbutanoyl)piperidin-4-yl)methyl)pyrimidin-4(3H)-one, Formic Acid]
10 | 1 to 200 µM | C[C@H](CC(=O)N1CCC(O)(Cn2cnc(N[C@@H](Cc3ccccc3)CN3CCCC3)cc2=O)CC1)c1ccccc1 [Example 57, 3-((4-Hydroxy-1-((R)-3-phenylbutanoyl)piperidin-4-yl)methyl)-6-(((S)-1-phenyl-3-(pyrrolidin-1-yl)propan-2-yl)amino)pyrimidin-4(3H)-one, Formic Acid]
11 | 0.25 to 0.999 µM | C[C@H](CC(=O)N1CCC(O)(Cn2cnc(NC[C@H]3CCCN3C)cc2=O)CC1)c1ccccc1 [Example 65, 3-((4-Hydroxy-1-((R)-3-phenylbutanoyl)piperidin-4-yl)methyl)-6-((((R)-1-methylpyrrolidin-2-yl)methyl)amino)pyrimidin-4(3H)-one, Formic Acid]
12 | 1 to 200 µM | C[C@H](CC(=O)N1CCC(O)(Cn2cnc(NC[C@@H]3CCCN3C)cc2=O)CC1)c1ccccc1 [Example 66, 3-((4-Hydroxy-1-((R)-3-phenylbutanoyl)piperidin-4-yl)methyl)-6-((((S)-1-methylpyrrolidin-2-yl)methyl)amino)pyrimidin-4(3H)-one, Formic Acid]

Row | SMILES | IC50
13 | C[C@H](CC(=O)N1CCC(O)(Cn2cnc(NC[C@@H](C)N3CCCC3)cc2=O)CC1)c1ccccc1 [Example 58, 3-((4-Hydroxy-1-((R)-3-phenylbutanoyl)piperidin-4-yl)methyl)-6-(((R)-2-(pyrrolidin-1-yl)propyl)amino)pyrimidin-4(3H)-one] | < 0.25 µM
14 | C[C@H](CC(=O)N1CCC(O)(Cn2cnc(NC[C@H](C)N3CCCC3)cc2=O)CC1)c1ccccc1 [Example 59, 3-((4-Hydroxy-1-((R)-3-phenylbutanoyl)piperidin-4-yl)methyl)-6-(((S)-2-(pyrrolidin-1-yl)propyl)amino)pyrimidin-4(3H)-one, Formic Acid] | < 0.25 µM
15 | C[C@H](CN1CCCC1)Nc1cc(=O)n(CC2(O)CCN(C(=O)C[C@@H](C)c3ccccc3)CC2)cn1 [Example 60, 3-((4-Hydroxy-1-((R)-3-phenylbutanoyl)piperidin-4-yl)methyl)-6-(((R)-1-(pyrrolidin-1-yl)propan-2-yl)amino)pyrimidin-4(3H)-one, Formic Acid] | < 0.25 µM

same assay, conditions: USP7 IC50, Table 4, biochemical assay; average of at least duplicate experiments

Row | SMILES | IC50
16 | CC(C)Cn1cc(-c2cc(=O)n(CC3(O)CCN(C(=O)C[C@@H](C)c4ccccc4)CC3)cn2)cn1 [Example 41, (R)-3-((4-Hydroxy-1-(3-phenylbutanoyl)piperidin-4-yl)methyl)-6-(1-isobutyl-1H-pyrazol-4-yl)pyrimidin-4(3H)-one] | 0.25 to 0.999 µM
17 | C[C@H](CC(=O)N1CCC(O)(Cn2cnc(N3CCC[C@H](N)C3)cc2=O)CC1)c1ccccc1 [Example 47, 6-((S)-3-Aminopiperidin-1-yl)-3-((4-hydroxy-1-((R)-3-phenylbutanoyl)piperidin-4-yl)methyl)pyrimidin-4(3H)-one hydrochloride] | 0.25 to 0.999 µM
18 | C[C@H](CC(=O)N1CCC(O)(Cn2cnc(N3CCC(N)CC3)cc2=O)CC1)c1ccccc1 [Example 48, (R)-6-(4-Aminopiperidin-1-yl)-3-((4-hydroxy-1-(3-phenylbutanoyl)piperidin-4-yl)methyl)pyrimidin-4(3H)-one hydrochloride] | 0.25 to 0.999 µM
19 | C[C@H](CC(=O)N1CCC(O)(Cn2cnc(N3CCC4(CCNC4)CC3)cc2=O)CC1)c1ccccc1 [Example 49, (R)-3-((4-Hydroxy-1-(3-phenylbutanoyl)piperidin-4-yl)methyl)-6-(2,8-diazaspiro[4.5]decan-8-yl)pyrimidin-4(3H)-one hydrochloride] | 0.25 to 0.999 µM
20 | C[C@H](CC(=O)N1CCC(O)(Cn2cnc(-c3cnn(CCN(C)C)c3)cc2=O)CC1)c1ccccc1 [Example 54, (R)-6-(1-(2-(Dimethylamino)ethyl)-1H-pyrazol-4-yl)-3-((4-hydroxy-1-(3-phenylbutanoyl)piperidin-4-yl)methyl)pyrimidin-4(3H)-one, Formic Acid] | 0.25 to 0.999 µM
21 | C[C@H](CC(=O)N1CCC(O)(Cn2cnc(N[C@@H](C)CN3CCCC3)cc2=O)CC1)c1ccccc1 [Example 61, 3-((4-Hydroxy-1-((R)-3-phenylbutanoyl)piperidin-4-yl)methyl)-6-(((S)-1-(pyrrolidin-1-yl)propan-2-yl)amino)pyrimidin-4(3H)-one, Formic Acid] | 0.25 to 0.999 µM
22 | C[C@H](CC(=O)N1CCC(O)(Cn2cnc(N3CC[C@H](N(C)C)C3)cc2=O)CC1)c1ccccc1 [Example 62, 6-((S)-3-(Dimethylamino)pyrrolidin-1-yl)-3-((4-hydroxy-1-((R)-3-phenylbutanoyl)piperidin-4-yl)methyl)pyrimidin-4(3H)-one] | 0.25 to 0.999 µM
